# Entries after “also recorded” stand apart in the source; their conditions may differ. Read-outs that look alike come from different tables or passages of the source.
# Assays:
# [1] = system: SARS-CoV-2 Omicron BA.1.1; assay: microbe, parasite or virus in culture; type: cell-based; settings: Severe acute respiratory syndrome coronavirus 2, Vero C1008, 48 h
# SARS-CoV-2 Omicron BA.5 = assay: microbe, parasite or virus in culture; type: cell-based; settings: Severe acute respiratory syndrome coronavirus 2, Vero C1008, 48 h
# [2] = system: SARS-CoV-2 Omicron BA.2.3; assay: microbe, parasite or virus in culture; type: cell-based; settings: Severe acute respiratory syndrome coronavirus 2, Vero C1008, 48 h
# [3] = Cell viability assay (CCK-8); type: cell-based; settings: African green monkey; Vero E6 cells, CCK8, 48 h
# Method: Cell viability was assessed using the Cell Counting Kit-8 assay (CCK-8, MedChemExpress, China). In brief, Vero E6 cells (ATCC, CRL-1586) at a density of 5 × 10^4 cells/well were seeded into 96-well plates for 24 h. Cells were cultured in Dulbecco's modified Eagle's medium (DMEM) (Gibco, USA), supplemented with 10% (v/v) serum, 100 U/mL penicillin, and 100 μg/mL streptomycin. Serial dilutions of CHLA (200 μL) at concentrations of 100, 80, 60, 40, 20, 10, and 5 μmol/L were added to wells and incubated for another 24 or 48 h, respectively. Following the incubation, the existing medium was replaced with fresh medium containing a 10% CCK-8 solution and incubated at 37 °C for 1 h. Absorbance at 450 nm was measured using a Microplate Reader (TECAN Sunrise™) to determine the final optical density. Data were analyzed using GraphPad Prism 8.0 software (version 8.0). All experiments were performed in triplicate to ensure reliability.
# [4] = Pharmacokinetic study in rats (LC-MS/MS); type: in vivo, Sprague–Dawley (SD) rats; settings: male, Sprague-Dawley, plasma, rat
# Method: The PK study was strictly conducted according to the National Medical Products Administration (NMPA) Good Laboratory Practice (GLP) guidelines, which was undertaken at the Animal Center of Tianjin University of Traditional Chinese Medicine. Sprague–Dawley (SD) rats were supplied by Beijing Vital River Laboratory Animal Technology Co., Ltd. (Beijing, China). Male SD rats (n = 5 per group, weights: 180–200 g and age: 6–8 weeks) were administered by CHLA (solubilized in DMSO: 0.9% NaCl = 5:95, v/v) at doses of 10 and 5 mg/kg via intragastric (i.g.) and intravenous (i.v.) routes, respectively. Blood samples were collected at specified intervals post-administration (0.033, 0.083, 0.166, 0.25, 0.5, 1, 4, 6, 8, 12, 24, 36, and 48 h), followed by centrifugation at 4000 rpm (Thermo Scientific Sorvall ST 40R Centrifuge, Osterode, Germany) and 4 °C for 10 min. The supernatant plasma was stored at −20 °C for subsequent analysis.
# Analysis was performed on a Shimadzu LC-20AD Prominence Liquid Chromatograph (Shimadzu Corporation, Japan)–AB Sciex API […] mass spectrometer (Applied Biosystems, USA) (LC–MS/MS). Samples were separated on an Agilent Poroshell 120 EC-C18 column (2.7 μm, 3.0 mm × 50 mm) (Agilent, USA). The column temperature was 35 °C, and the mobile phase consisted of water with 0.1% formic acid (v/v, buffer A) and acetonitrile with 0.1% formic acid (v/v, buffer B). The elution was conducted according to a 5-min gradient program (0–0.5 min, 10% buffer B; 0.5–2 min, 10%–90% buffer B; 2–3.5 min, 90% buffer B; 3.5–5 min, 10% buffer B), with the flow rate set at 0.5 mL/min and the injection volume at 10 μL. The mass spectrometry operated in positive MRM mode, targeting the precursor and product ions of CHLA (m/z 953.3 →301.1 and 953.3 →275.1, respectively). Tolbutamide served as the internal standard (IS), with precursor and product ions at 269.1 →170.1. The parameters were analyzed by […] via DAS 3.2.8 software. The regression equation for CHLA, based on the peak area ratio of CHLA to IS against the concentration, was (Eq. (1)):(1) y=0.0000796x+0.000162(r=0.9968) indicating a strong correlation.
# [5] = Solubility of the dosing preparation at the effective dose; type: physicochemical; settings: 300 mg/kg dose, saline with 5% DMSO
# Method: In vivo, a total of 20 female K18-hACE2 transgenic mice aged 8 weeks were obtained from GemPharmatech (Nanjing, China), which were classified into four groups with five mice in each group: Group 1 served as the untreated, infected control (Virus group); Group 2 received 300 mg/kg of PF-07321332 as the positive control; and Groups 3 and 4 were administered CHLA at doses of 150 and 300 mg/kg, respectively. On Day 0, these K18-hACE2 mice were intranasally inoculated with 1000 FFU of SARS-CoV-2 WT, which was pre-diluted in 50 μL of DMEM. The therapeutic administration was commenced 2 h after infection. The K18-hACE2 transgenic mice were orally administered with either PF-07321332 (300 mg/kg) or CHLA at varying doses (150 and 300 mg/kg), which were dissolved in a saline solution containing 5% DMSO. The mice were euthanized three days post-administration, and the lungs were collected and placed in 1 mL PBS and preserved at −80 °C to evaluate pulmonary virus titers.
# SARS-CoV-2 Delta = assay: microbe, parasite or virus in culture; type: cell-based; settings: Severe acute respiratory syndrome coronavirus 2, Vero C1008, 48 h
# [6] = Caco-2 bidirectional permeability assay; type: in vitro ADME; settings: human, pH 7.4
# Caco-2 cells = assay: Caco-2 bidirectional permeability assay; type: in vitro ADME
# [7] = Acute toxicity test in mice; type: in vivo, C57BL/6 mice; settings: 200 and 500 mg/kg, i.g.
# Method: Specific-pathogen-free (SPF) C57BL/6 mice were used, balanced for gender, with males and females weighing 18–20 g. The Institutional Committee approved all animal experiment procedures in this study for Animal Care and Biosafety at the Animal Center, Tianjin University of Traditional Chinese Medicine. CHLA was weighed and subsequently dissolved in a 5% DMSO solution, which was then diluted with normal saline (0.9% sodium chloride solution) and mixed to achieve the desired concentration. To evaluate CHLA's acute toxicity, mice were randomly allocated into three groups (n = 10): a control group administered normal saline, and two treatment groups administered CHLA solution at 200 and 500 mg/kg, respectively. We monitored all mice that occurred twice daily over 14 days, focusing on toxicological signs, changes in body weight, and behavioral abnormalities. Upon concluding the study, specimens from blood, heart, liver, spleen, lung, and kidney were harvested for analysis.
# SARS-CoV-2 WT [8] = type: in vivo, K18-hACE2 transgenic mice; settings: for lung live viral titers vs Virus group: three days post-infection; for body weight of infected mice: 1000 FFU SARS-CoV-2 WT
# SARS-CoV-2 WT [9] = assay: Antiviral CPE assay in infected Vero E6 cells; type: cell-based; settings: Severe acute respiratory syndrome coronavirus 2, Vero C1008, Vero E6, MOI 0.01, 48 h
# SARS-CoV-2 Omicron BA.4 = assay: microbe, parasite or virus in culture; type: cell-based; settings: Severe acute respiratory syndrome coronavirus 2, Vero C1008, 48 h
# E166V mutation of M^pro = settings: E166V mutant vs wild-type M^pro; cited from earlier work
smiles,measurement,setting,value
"O=C(O)C[C@@H]1C(=O)O[C@H]2[C@@H]3OC(=O)c4cc(O)c(O)c(O)c4-c4c(cc(O)c(O)c4O)C(=O)OC[C@H]2O[C@@H](OC(=O)c2cc(O)c(O)c(O)c2)[C@@H]3OC(=O)c2cc(O)c(O)c3c2[C@H]1[C@H](O)C(=O)O3 [CHLA, chebulagic acid]",EC50,[1],820 nM
same,EC50,SARS-CoV-2 Omicron BA.5,1910 nM
same,EC50,[2],1110 nM
same,CC50 at 48 h,[3],> 100000 nM
same,AUC(0-t),"[4]; iv, i.v. 5 mg/kg",16300 ± 1980 ng·h/mL
same,Cmax,"[4]; iv, i.v. 5 mg/kg",4160 ± 79.4 ng/mL
same,Tmax,"[4]; iv, i.v. 5 mg/kg",0.033 h
same,half-life,"[4]; iv, i.v. 5 mg/kg",39.6 ± 13.5 h
same,bioavailability,"[4]; oral, i.g. 10 mg/kg vs i.v. 5 mg/kg, read-out: oral bioavailability (F)",7.1%
same,AUC(0-t),"[4]; po, i.g. 10 mg/kg",2320 ng·h/mL
same,Cmax,"[4]; po, i.g. 10 mg/kg",241 ng/mL
same,Tmax,"[4]; po, i.g. 10 mg/kg",2 h
same,half-life,"[4]; po, i.g. 10 mg/kg",15.2 h
same,solubility at the effective dose,[5],superior solubility
same,EC50,SARS-CoV-2 Delta,1860 nM
same,"Papp A→B at 2 h, 5 μmol/L","[6]; Caco-2, 5 μmol/L",1.2 ×10⁻⁶ cm/s
same,"Papp B→A at 2 h, 5 μmol/L","[6]; Caco-2, 5 μmol/L",0.39 ×10⁻⁶ cm/s
same,"efflux ratio at 2 h, 5 μmol/L","[6]; Caco-2, 5 μmol/L",0.33
same,"membrane permeability, in words","Caco-2 cells; Caco-2, 5 μmol/L",moderate membrane permeability
same,Papp (A–B),"Caco-2 cells; Caco-2, 5 µmol/L, Table S3","1.20 10-6, cm/s"
same,Papp (B–A),"Caco-2 cells; Caco-2, 5 µmol/L, Table S3","0.39 10-6, cm/s"
same,"histology of lung, heart, spleen, liver and kidney",[7],No obvious histological changes
same,"acute oral toxicity, overall finding",[7]; 14 days,safe
same,body weight vs control group,[7]; 14 days,no significant difference
same,lung live viral titers vs Virus group,SARS-CoV-2 WT [8]; 150 mg/kg oral,no significant difference
same,body weight of infected mice,SARS-CoV-2 WT [8]; 300 mg/kg oral,weight recovery
same,antiviral efficacy compared with positive control PF-07321332 (300 mg/kg),"SARS-CoV-2 WT [8]; 300 mg/kg oral, P > 0.05",equivalent to that of PF-07321332; also recorded: comparable to that of PF-07321332
same,lung live viral titers vs Virus group,SARS-CoV-2 WT [8]; 300 mg/kg oral,significant decrease
same,EC50,SARS-CoV-2 WT [9],430 nM
same,EC50,SARS-CoV-2 Omicron BA.4,1890 nM
C[C@H]1O[C@@H](O[C@H]2[C@@H](O)C[C@H](O[C@H]3[C@@H](O)C[C@H](O[C@H]4CC[C@@]5(C)[C@H](CC[C@@H]6[C@@H]5C[C@@H](O)[C@]5(C)[C@@H](C7=CC(=O)OC7)CC[C@]65O)C4)O[C@@H]3C)O[C@@H]2C)C[C@H](O)[C@@H]1O [Digoxin],"efflux ratio at 2 h, 5 μmol/L","[6]; Caco-2, 5 μmol/L",29.6
same,"Papp A→B at 2 h, 5 μmol/L","[6]; Caco-2, 5 µmol/L, Table S3",0.68 ×10⁻⁶ cm/s
same,"Papp B→A at 2 h, 5 μmol/L","[6]; Caco-2, 5 µmol/L, Table S3",20.2 ×10⁻⁶ cm/s
Nc1cc(N2CCCCC2)nc(N)[n+]1[O-] [Minoxidil],"Papp A→B at 2 h, 5 μmol/L","[6]; Caco-2, 5 μmol/L",5.94 ×10⁻⁶ cm/s
same,"efflux ratio at 2 h, 5 μmol/L","[6]; Caco-2, 5 μmol/L",0.96
same,"Papp B→A at 2 h, 5 μmol/L","[6]; Caco-2, 5 µmol/L, Table S3",5.71 ×10⁻⁶ cm/s
same,Papp (A–B),"Caco-2 cells; Caco-2, 5 µmol/L, Table S3","5.94 10-6, cm/s"
"CC(C)(C)[C@H](NC(=O)C(F)(F)F)C(=O)N1C[C@H]2[C@@H]([C@H]1C(=O)N[C@H](C#N)C[C@@H]1CCNC1=O)C2(C)C [PF-07321332, reference compound]",EC50,[1],50 nM
same,EC50,SARS-CoV-2 Omicron BA.5,40 nM
same,EC50,[2],40 nM
same,loss of inhibitory efficacy caused by the E166V mutation,E166V mutation of M^pro,over 200 fold
same,solubility at the effective dose,[5],poor solubility
same,EC50,SARS-CoV-2 Delta,50 nM
same,body weight of infected mice,SARS-CoV-2 WT [8]; 300 mg/kg oral,weight recovery
same,lung live viral titers vs Virus group,SARS-CoV-2 WT [8]; 300 mg/kg oral,significant decrease
same,EC50,SARS-CoV-2 WT [9],30 nM
same,EC50,SARS-CoV-2 Omicron BA.4,80 nM

# From PMC12648101, “Targeting SARS-CoV-2 main protease for the discovery of a broad-spectrum COVID-19 inhibitor by intensive multi-tiered validation” (Acta Pharmaceutica Sinica. B, 2025)
